The values that follow come from publication PMC2151574 (The Journal of General Physiology, 2006).

The test system of assay [1] is Shaker channel (ShB Δ6-46). The assay is described as follows: Macroscopic block of Shaker currents, inside-out patch clamp. Type of assay: cell-based. The conditions noted are these: identical conditions, holding potential −120 mV.
Assay [2] relates to other K^+ channels and CNG channels. The conditions noted are these: most other K^+ channels; cited from earlier work.
Assay [3] addresses wild-type BK channel (mslo, mbr5) (Mus musculus, UniProt Q08460). The assay is described as follows: Macroscopic block of wild-type BK currents, inside-out patch clamp. It is filed as cell-based. The conditions noted are these: for time constant of block, τfast (double exponential fit) / time constant of block, τslow (double exponential fit): inside-out patch, 22°C, holding potential −80 mV. A general note: Patch clamp records ionic current or voltage across a cell membrane.

In assay [4] the target is E321N, E324N mutant BK channel (Mus musculus, UniProt Q08460, E386N/E389N). It is filed as cell-based.
Assay [5] has as its system BK channels. The conditions noted are these: ref Foster et al., 1992, cited from earlier work.
For assay [6], the system named is Shaker channels. The conditions noted are these: ref Murrell-Lagnado and Aldrich, 1993b; cited from earlier work.
[7] abbreviates: when roughly half of the channels are blocked.

Chain of wild-type BK channel (mslo, mbr5) (Q08460 66-1209 limits assumed): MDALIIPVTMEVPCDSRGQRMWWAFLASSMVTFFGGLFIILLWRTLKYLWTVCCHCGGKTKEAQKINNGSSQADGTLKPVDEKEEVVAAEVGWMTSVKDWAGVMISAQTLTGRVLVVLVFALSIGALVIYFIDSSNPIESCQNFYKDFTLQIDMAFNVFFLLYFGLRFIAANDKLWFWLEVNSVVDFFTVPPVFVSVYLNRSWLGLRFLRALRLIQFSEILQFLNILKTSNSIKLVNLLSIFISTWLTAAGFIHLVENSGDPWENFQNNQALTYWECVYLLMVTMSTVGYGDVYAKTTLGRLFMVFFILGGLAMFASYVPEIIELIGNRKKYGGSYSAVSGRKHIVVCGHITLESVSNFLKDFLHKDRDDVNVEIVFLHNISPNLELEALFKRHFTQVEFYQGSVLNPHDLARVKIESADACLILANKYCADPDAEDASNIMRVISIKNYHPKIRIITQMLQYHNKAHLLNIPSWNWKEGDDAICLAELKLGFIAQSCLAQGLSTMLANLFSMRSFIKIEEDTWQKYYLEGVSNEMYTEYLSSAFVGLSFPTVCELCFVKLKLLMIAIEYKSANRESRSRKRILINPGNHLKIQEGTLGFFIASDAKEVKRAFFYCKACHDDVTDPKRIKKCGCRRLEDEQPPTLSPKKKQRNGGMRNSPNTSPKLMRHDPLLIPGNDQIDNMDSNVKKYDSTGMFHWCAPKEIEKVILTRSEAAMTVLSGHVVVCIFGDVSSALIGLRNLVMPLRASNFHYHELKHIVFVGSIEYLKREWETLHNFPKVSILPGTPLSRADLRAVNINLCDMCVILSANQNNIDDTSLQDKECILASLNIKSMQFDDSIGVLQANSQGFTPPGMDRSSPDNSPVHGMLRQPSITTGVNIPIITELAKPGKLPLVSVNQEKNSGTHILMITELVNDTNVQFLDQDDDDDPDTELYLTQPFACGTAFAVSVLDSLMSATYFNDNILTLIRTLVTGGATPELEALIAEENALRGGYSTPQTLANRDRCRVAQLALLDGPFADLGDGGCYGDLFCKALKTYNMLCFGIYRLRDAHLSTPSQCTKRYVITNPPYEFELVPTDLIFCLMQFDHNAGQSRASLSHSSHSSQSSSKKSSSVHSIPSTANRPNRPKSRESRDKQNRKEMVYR
Chain of E321N, E324N mutant BK channel (Q08460 66-1209 E386N/E389N limits assumed): as the sequence (Q08460 66-1209 limits assumed) above, with E321N, E324N counted along it

Turning to MAAVAGLYGLGEDRQHRKKQ [ShBP], the “block of Shaker compared with BK currents” value in assay [1] is “slower block and higher apparent affinity”. The “type of block events in other K+ channels” value in assay [2] is on record as “only long block events”. Also, in assay [3] (30 μM ShBP, macroscopic), the “time constant of block, τfast (double exponential fit)” value was found to be 2.0 ms and the “time constant of block, τslow (double exponential fit)” value came out at 13.1 ms. Further, the “block of wild-type BK currents by ShBP” value in assay [3] (100 μM ShBP, 120 mV) is given as about 70%. Also, in assay [3] (100 μM ShBP, macroscopic), the “time constant of block, τfast (double exponential fit)” value was determined as 0.7 ms and the “time constant of block, τslow (double exponential fit)” value was determined as 5.2 ms. For the same sequence, the “type of block events in BK channels” value in assay [3] (native ShBP) was “mainly short block events”. The “character of block events” value in assay [3] (when about half of the currents are blocked, macroscopic) is on record as “the majority of the block events are short lived”. For the same sequence, in assay [3] (setting [7]), the “time constant of block, faster of two components” value was about 2 ms and the “time constant of block, slower of two components” value is reported as about 10 ms. The “block of E321N, E324N currents by ShBP” value in assay [4] (100 μM ShBP, 120 mV (unpublished data), roughly estimated) is recorded as about 20%. Besides, the “decrease in apparent affinity of ShBP by the double mutation” value in assay [4] (120 mV) is reported as about 10 fold. Further, in assay [5] (dominating, Toro et al., 1992, 1994), the “lifetime of short block events, single BK channels” value was “a few milliseconds”. Further, the “lifetime of long block events, single BK channels” value in assay [5] (rare, Toro et al., 1992, 1994) is recorded as “hundreds of milliseconds”. For the same sequence, in assay [5] (Toro et al.), the “dissociation rate for the short block of BK channels” value is about 100 s⁻¹. The “dissociation rate, Shaker channels” value in assay [6] was about 10 s⁻¹.
